Series [1] has as its target Glutamate receptors; NMDA/AMPA. In words: In vitro binding affinity to the AMPA receptor using [3H]AMPA binding assay. The class given is protein-complex assay.
In series [2] the target is Glutamate receptor ionotropic, AMPA (Rattus norvegicus) (UniProt P19491+P19492+P19493+P19490). In words: Tested for in vitro binding affinity against AMPA receptor using [3H]AMPA binding assay at a concentration of 1 uM. It counts as protein-complex assay.
Series [3] deals with Glutamate receptor ionotropic, NMDA 1 (Rattus norvegicus, UniProt P35439). Put plainly: Tested for in vitro binding affinity against glycine-bining site of NMDA receptor using [3H]MDL-105519 binding assay.
The test system of series [4] is Mus musculus. In words: Tested for anticonvulsion activity in the mice after 1 hr pretreatment of oral administration. The class given is functional.
Series [5] deals with Mus musculus. In words: Tested for anticonvulsion activity in the metrazole-induced convulsion assays in mice after 30 min of ip administration. It counts as functional. Conditions: 0.5 h.
Series [6] relates to Mus musculus. In words: Tested for anticonvulsion activity in the electroshock-induced convulsion assays in mice after 30 min of ip administration. The class given is functional. The settings on record: 0.5 h.
Series [7] can be described thus: Tested for solubility in water at pH 7.4. The class given is ADME.
Series [8] relates to Mus musculus. In words: Tested for anticonvulsion activity in the electroshock-induced convulsion assays in mice at 50 mg/kg after 30 min (i.p. administration ). The class given is functional. The settings on record: route intraperitoneal.
For series [9], the system named is Mus musculus. In words: Tested for anticonvulsion activity in the electroshock-inducedconvulsion assays in mice at 50 mg/kg after 30 min (i.p. administration ). The class given is functional. Conditions: route intraperitoneal.

Turning to `O=C(O)C1(c2ccccc2)CCN(Cc2cc3nc(O)c(O)nc3cc2[N+](=O)[O-])CC1`, the IC50 in [1] turned out to be 2000 nM. For the compound `O=C(O)C1CCCCN1Cc1cc2nc(O)c(O)nc2cc1Br` (stereo not given), the inhibition in [2] stood at 18%.

`CCN(CC)Cc1cc2nc(O)c(O)nc2cc1[N+](=O)[O-]` displayed an IC50 in [1] of 840 nM. `O=[N+]([O-])c1cc2nc(O)c(O)nc2cc1CN1CCCC(O)C1` (stereo not given) came in with an IC50 in series [1] of 430 nM. The same measure, in the same setting: to `O=[N+]([O-])c1cc2nc(O)c(O)nc2cc1CN1CCCCCC1` belongs 580 nM. Still for that read-out and setting: the figure for `CC1CCCN(Cc2cc3nc(O)c(O)nc3cc2[N+](=O)[O-])C1` (stereo not given) is 600 nM. On to `O=[N+]([O-])c1cc2nc(O)c(O)nc2cc1CN1CCC1`, for which the results for the IC50 in [3] and in [1] were 3800 nM and 1500 nM, respectively. `O=[N+]([O-])c1cc2nc(O)c(O)nc2cc1CN1CCCCC1` registered a half-maximal inhibitory concentration (IC50) in series [1] of 290 nM. Same read-out and setting: to `O=C(O)C1CCCN(Cc2cc3nc(O)c(O)nc3cc2Br)C1` (stereo not given) belongs 2500 nM; to `O=[N+]([O-])c1cc2nc(O)c(O)nc2cc1CN1CC=CCC1`, 360 nM. Consider `CCOC(=O)C1CCN(Cc2cc3nc(O)c(O)nc3cc2[N+](=O)[O-])CC1`, for which the values for the IC50 in series [3] and in series [1] were 590 nM and 350 nM, respectively. Compound `NC(=O)C1CCN(Cc2cc3nc(O)c(O)nc3cc2[N+](=O)[O-])CC1` gave a half-inhibitory concentration (IC50) in series [1] of 760 nM. Same read-out and setting: to `O=[N+]([O-])c1cc2nc(O)c(O)nc2cc1CN1CCCC(CO)C1` (stereo not given) belongs 520 nM. In series [1], `COC1CCN(Cc2cc3nc(O)c(O)nc3cc2[N+](=O)[O-])CC1` registered an IC50 of 430 nM.

Consider `Br.CC1CCN(Cc2cc3nc(O)c(O)nc3cc2[N+](=O)[O-])CC1`, for which the ED50 with Mus musculus [4] was found to be 54 mg/kg; in the series with Mus musculus [5], 16 mg/kg; in the series with Mus musculus [6] it was 33 mg/kg. In [1], this compound yielded an IC50 of 370 nM. In series [1], `O=[N+]([O-])c1cc2nc(O)c(O)nc2cc1CN1CCOCC1` had an IC50 of 660 nM. The same measure, in the same setting: to `O=C(O)[C@H]1[C@H](O)CCN1Cc1cc2nc(O)c(O)nc2cc1[N+](=O)[O-]` belongs 2100 nM. In turn, `Br.O=C(O)C1CCN(Cc2cc3nc(O)c(O)nc3cc2[N+](=O)[O-])CC1` registered a solubility in series [7] of 1680 µg/mL. The IC50 in [3] worked out at 3900 nM; in series [1] it was 70 nM. For the same compound, in the series with Mus musculus [6], it took a dose of 44 mg/kg to reach the 50% effect level (ED50). In the case of `O=[N+]([O-])c1cc2nc(O)c(O)nc2cc1CN1CCCC1CO` (stereo not given), the IC50 in series [1] was 700 nM. On the same count and under the same terms, the figure for `CC1CN1Cc1cc2nc(O)c(O)nc2cc1[N+](=O)[O-]` (stereo not given) is 2200 nM.

Regarding `O=[N+]([O-])c1cc2nc(O)c(O)nc2cc1CN1CCC(c2ccccc2)CC1`, the 50% inhibitory concentration (IC50) in series [3] was 330 nM; in series [1], 430 nM. In turn, `O=C(O)C1CCN(Cc2cc3nc(O)c(O)nc3cc2Br)CC1` registered a half-maximal inhibitory concentration (IC50) in series [1] of 890 nM. Same read-out and setting: to `O=[N+]([O-])c1cc2nc(O)c(O)nc2cc1CN1CCC(O)CC1` belongs 310 nM. Consider `CN1CCN(Cc2cc3nc(O)c(O)nc3cc2[N+](=O)[O-])CC1`, for which the half-maximal inhibitory concentration (IC50) in series [1] is 3400 nM. For the compound `Br.O=[N+]([O-])c1cc2nc(O)c(O)nc2cc1CN1CCCC1`, the ED50 with Mus musculus [5] was determined as 26 mg/kg. In addition, the Protection with Mus musculus [8] came out at 40%. For the same compound, the concentration for half-maximal inhibition (IC50) in series [1] worked out at 280 nM. In [1], `O=C(O)[C@H]1CCCN1Cc1cc2nc(O)c(O)nc2cc1[N+](=O)[O-]` had a half-maximal inhibitory concentration (IC50) of 460 nM. In series [3], `O=C(O)C1CCCCN1Cc1cc2[nH]c(=O)c(=O)[nH]c2cc1Br` (stereo not given) yielded an IC50 of 840 nM.

The compound `Br.O=[N+]([O-])c1cc2nc(O)c(O)nc2cc1CN1CCC(O)C1` (stereo not given) gave an IC50 in series [1] of 330 nM. The ED50 in the series on Mus musculus [6] turned out to be 34 mg/kg. Consider `O=C(O)C1CCN(Cc2cc3nc(O)c(O)nc3c([N+](=O)[O-])c2Br)CC1`, for which, in series [2], the inhibition stood at 15%. As to `O=[N+]([O-])c1cc2nc(O)c(O)nc2cc1CN1CCNCC1`, the IC50 in series [1] was 11000 nM. Turning to `Br.O=[N+]([O-])c1cc2nc(O)c(O)nc2cc1CN1CC=CC1`, the median effective dose (ED50) in the series on Mus musculus [5] turned out to be 35 mg/kg. The same compound came in with an IC50 in series [1] of 490 nM. The Protection with Mus musculus [9] was determined as 60%.

Source of the values: ChEMBL document CHEMBL1130976, “5-Aminomethylquinoxaline-2,3-diones. Part I: A novel class of AMPA receptor antagonists” (Bioorg Med Chem Lett, 1998).
